# What was measured:
# [1] = test system: U251MG glioblastoma cells; experiment: CyQuant cell viability/proliferation assay, U251MG; type: cell-based, human; details: Table 1/FIG. 2 numbering
# Description: (§1) The cell viability assay was performed as previously reported (Zhang X, et al. (2010)). Briefly, a 10 millimolar concentration stock solution in dimethylsulfoxide (DMSO) of the tested molecule was first prepared. Next, the stock solution was diluted down to various working solutions in water. Thus, a formulation of the tested compound in a DMSO/water mixture was used to test for cell viability. (A novel small-molecule disrupts STAT3 SH2 domainphosphotyrosine interactions and STAT3-dependent tumor processes, Biochem Pharmacol 79:1398-1409; Zhao W, Jaganathan S, & Turkson J (2010), A cell-permeable STAT3 SH2 domain mimetic inhibits STAT3 activation and induces antitumor cell effects in vitro. J Biol Chem. 285:35855-35865). Cells (U251MG, MDA-MB-231 or NIH3T3) were obtained from ATCC (Manassas, Va.) and were cultured in 96-well plates at 2,000 cells per well for 24 h and were treated with compounds (5 micromolar concentration) for 72 h. Cell viabilty was determined using CyQuant assay, according to the manufacturer's (Invitrogen, CA, USA) instructions. Relative viability of the treated cells was normalized to the DMSO-treated control cells.
# [2] = test system: STAT3 DNA-binding activity; experiment: STAT3 DNA-binding activity (EMSA) of nuclear extracts from treated tumor cells; details: 5 micromolar, time course
# Description: Positions of STATs:DNA complexes or proteins in gel are labeled; control lanes (0) represent nuclear extracts or whole-cell lysates prepared from 0.05% DMSO-treated cells.
# Nuclear extract preparations and DNA-binding/electrophoretic mobility shift assay (EMSA) were carried out as previously described (Xu, supra). Nuclear extract preparations and DNA-binding activity/electrophoretic mobility shift assay (EMSA) were carried out as previously described. U251 MG and MDA-MB-231 cells culture were pretreated with different concentrations of the compounds for the indicated period and then harvested for nuclear extract preparation and DNA-binding assay with EMSA analysis. […] Except where indicated, nuclear extracts were pre-incubated with compound for 30 min at room temperature prior to incubation with the radiolabeled probe for 30 min at 30° C. before subjecting to EMSA analysis.
# [3] = test system: GSH levels in U251 MG cells; experiment: Glutathione (GSH) levels in U251 MG cells
# Description: Reduced glutathione (GSH) and oxidized glutathione disulfide (GSSG) levels were assayed using a commercially available kit (Cayman Chemical, Ann Arbor, Mich.) and following the manufacturer's instructions.
# [4] = test system: pSTAT1; experiment: Immunoblotting of EGF-induced pSTAT1 in NIH3T3/hEGFR; details: 5 micromolar
# Description: (§2) To determine the specificity of agents, mouse fibroblasts over-expressing the human EGF receptor (NIH3T3/hEGFR) were treated with the compounds and stimulated with EGF.
# [5] = test system: normal NIH3T3 mouse fibroblasts; experiment: CyQuant cell viability/proliferation assay, NIH3T3; type: cell-based; design: key to Activity against 3T3: +, active; −, no activity; +/−, poorly active; details: Table 1 grade; Table 1/FIG. 2 compound numbering
# Description: as §1
# [6] = test system: U251MG cells; experiment: Wound healing assay for migration; type: cell-based, human; details: 0-5 micromolar, 19 h, viability unaffected
# Description: Viable cell numbers at 19 h post-treatment were counted and are represented (right panel). Values are the mean and S.D. of 3-4 independent determinations. Data are representative of 3 independent determinations.
# This assay was performed as previously reported. (Xu, Y., supra). Briefly, subconfluent cultures of U251MG cells in 6-well plates were wounded using pipette tips and treated with compound or vehicle (DMSO) and allowed to migrate into the denuded area over a 19 h period. The migration of cells was visualized at a 10× magnification using an Axiovert 200 inverted fluorescence microscope (Zeiss), with pictures taken using a mounted Canon Powershot A640 digital camera.
# [7] = test system: MDA-MB-231 breast cancer cells; experiment: CyQuant cell viability/proliferation assay, MDA-MB-231; type: cell-based, human; design: key to Activity against 231: +, active; −, no activity; +/−, poorly active; details: Table 1 grade; Table 1/FIG. 2 compound numbering
# Description: as §1
# [8] = test system: pY705STAT3 in U251MG or MDA-MB-231 cells; experiment: Immunoblotting of pY705STAT3 in treated tumor cells
# Description: Positions of STATs:DNA complexes or proteins in gel are labeled; control lanes (0) represent nuclear extracts or whole-cell lysates prepared from 0.05% DMSO-treated cells. Data are representative of at least three to four independent determinations.
# Lysates of equal total protein prepared in the lysis buffer (50 mM Hepes, pH 7.5, 150 mM NaCl, 2 mM EDTA, 1% Triton X-100, 0.1% SDS), were subjected to IP or Western blotting analysis. Antibodies against STAT3, pY705STAT3, Src, pY416Src, Erk1/2, and pT202/Y204Erk1/2 and GAPDH (Cell Signaling Technology, Danvers, Mass.), and anti-β-actin, and HSP105 (Santa Cruz Biotechnology, Dallas, Tex.) are from the designated sources.
# Whole-cell lysates were prepared in boiling SDS sample loading buffer to extract total proteins, as reported previously. […] Nitrocellulose membranes were probed with primary antibodies, and the detection of horseradish peroxidase-conjugated secondary antibodies by enhanced chemiluminescence (Amersham) was performed. Antibodies used were monoclonal anti-pYSTAT3 and anti-STAT3 antibodies (Cell Signaling Technology, Danvers, Mass.).
# [9] = test system: PTP1B; experiment: Immunoblotting of PTP1B levels in U251MG cells; type: cell-based, human; details: 5 micromolar
# Description: To further investigate into the mechanism of inhibition of STAT3 induction, effects on protein tyrosine […] (PTPs) were determined. […] Instead, the potent inhibitory effects of agents (5 micromolar) countered the robust pY705STAT3 induction by orthovanadate alone.
# FIGS. 13A-13C show analyses of STAT1, STAT3, STAT5, Akt, Erk1/2, JAK2, SOCS, and PTP1B activation or STAT3-EGFR association and the effects of active hirsutinolides and sodium orthovanadate. (A-C) SDS-PAGE and Western blotting analysis of whole-cell lysates of equal total protein prepared from (A) EGF-stimulated NIH3T3/hEGFR cells pre-treated with the 5 micromolar of the designated agents for 24 h and probing for pY705STAT3, STAT3, pY701 STAT1, STAT1, pY694STAT5, STAT5 or GAPDH, or the human glioma, U251MG cells treated with 5 micromolar of the designated inhibitors for (B) 0-32 h and probing for pS-Akt, Akt, pErk1/2, Erk1/2, pJAK2, JAK2, SOCS3, PTP1B, pSTAT3, STAT3, β-actin or GAPDH; or (C) 3 h in the absence or presence of increasing concentration of Na3VO4 and probing for pSTAT3, STAT3 or GAPDH/.
# [10] = test system: U251MG cells; experiment: Colony survival assay, U251MG; type: cell-based, human
# Description: The effect of the isolated or synthesized compounds in a colony survival assay was performed.
# This assay was performed as previously reported (Xu, Y., supra). The assay was performed as previously reported. Briefly, cells were seeded as single-cell in 6-well plates (250 cells per well), treated once the next day with compounds for 72 h, and allowed to grow until large colonies were visible. Colonies were stained with crystal violet for 4 h and counted with FluorChem imaging system (Protein Simple, Santa Clara, Calif.).
# [11] = test system: pSTAT5; experiment: Immunoblotting of EGF-induced pSTAT5 in NIH3T3/hEGFR; details: 5 micromolar
# Description: as §2
substance,measurement,setting,value
"(4S,6R,E)-4,7-dihydroxy-6,10-dimethyl-2-oxo-2,4,5,6,7,8,9,10-octahydro-7,10-epoxycyclodeca[b]furan-3-yl)methyl(E)-2-methylbut-2-enoate [Compound 22]",IC50,"[1]; 72-h treatment, read-out: IC50 for the inhibition of U251MG cell viability",2.6 µM
same,"Cell-type selectivity of growth inhibition, in words",[1]; U251MG versus other cells incl. NIH3T3,selective against the growth of human glioma U251MG cells
same,Inhibition of STAT3 DNA-binding activity in treated cells (EMSA),[2],early inhibition at 15-30 min
same,Effect on GSH levels,[3],did not repress GSH levels
same,Effect on EGF-induced pSTAT1,[4],no effects
same,Activity against 3T3,[5],+/−
same,Cell migration into the denuded area,[6],suppressed the numbers of U251 cells migrating into the denuded area
same,Activity against 231,[7],+
same,"Effect on pY705STAT3 / STAT3 activity (immunoblot), in words","[8]; 5 micromolar, 0-24 h, U251MG or MDA-MB-231, Table 1/FIG. 2 numbering",early inhibition at 15-30 min
same,pY705STAT3 inhibition in combination with sodium orthovanadate,"[8]; U251MG, 5 micromolar compound, 10-300 micromolar orthovanadate, 3 h",failed to overcome the inhibitory effect
same,Effect on PTP1B levels,[9],little or no effects
same,Preferential effect on colony survival of U251MG and MDA-MB231 over MCF-7,[10],2.5 fold
same,Effect on EGF-induced pSTAT5,[11],no effects

# Source: patent US10800790B2, “Sesquiterpenoid STAT3 inhibitors” (University of Hawaii, priority 2013, dated 2020)
